# Data: US20100267561A1, “HERBICIDAL PYRIDAZINONE DERIVATIVES” (priority 2007, published 2010)
# Columns and labels:
# Format in all cases: in vivo
# [1] = tested on: canarygrass (Phalaris minor); test: Test A pre-/postemergence plant response
# Text: (§1) Seeds of species selected from barnyardgrass (Echinochloa crus-galli), large crabgrass (Digitaria sanguinalis), giant foxtail (Setaria faberi), blackgrass (Alopecurus myosuroides), canarygrass (Phalaris minor), morningglory (Ipomoea coccinea), pigweed (Amaranthus retroflexus), velvetleaf (Abutilon theophrasti), wheat (Triticum aestivum), and corn (Zea mays) were planted into a blend of loam soil and sand and treated preemergence with a directed soil spray using test chemicals formulated in a non-phytotoxic solvent mixture which included a surfactant. At the same time these species were also treated with postemergence applications of test chemicals formulated in the same manner.
# (§2) Plants ranged in height from 2 to 10 cm and were in the one- to two-leaf stage for the postemergence treatment. Treated plants and untreated controls were maintained in a greenhouse for approximately 10 days, after which time all treated plants were compared to untreated controls and visually evaluated for injury. Plant response ratings, summarized in Table A, are based on a 0 to 100 scale where 0 is no effect and 100 is complete control. A dash (-) response means no test results.
# corn (Zea mays) = test: Test A pre-/postemergence plant response
# Text: as §1, §2
# [2] = tested on: pigweed (Amaranthus retroflexus); test: Test A pre-/postemergence plant response
# Text: as §1, §2
# [3] = tested on: barnyardgrass (Echinochloa crus-galli); test: Test A pre-/postemergence plant response
# Text: as §1, §2
# [4] = tested on: blackgrass (Alopecurus myosuroides); test: Test A pre-/postemergence plant response
# Text: as §1, §2
# [5] = tested on: wheat (Triticum aestivum); test: Test A pre-/postemergence plant response
# Text: as §1, §2
# [6] = tested on: giant foxtail (Setaria faberi); test: Test A pre-/postemergence plant response
# Text: as §1, §2
# [7] = tested on: large crabgrass (Digitaria sanguinalis); test: Test A pre-/postemergence plant response
# Text: as §1, §2
# rice (Oryza sativa) = test: Test B flooded paddy test plant response
# Method in brief: (§3)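 Paddy-water application to 2-leaf plants in pots held under 3 cm of flooding; response is a 0–100 visual control rating against controls after 13 to 15 days, and a dash marks a missing result.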
# [8] = tested on: barnyardgrass (Echinochloa crus-galli); test: Test B flooded paddy test plant response
# Method in brief: as §3
# [9] = tested on: umbrella sedge (Cyperus difformis); test: Test B flooded paddy test plant response
# Method in brief: as §3
# [10] = tested on: ducksalad (Heteranthera limosa); test: Test B flooded paddy test plant response
# Method in brief: as §3
# [11] = tested on: winter barley (HORVX, Hordeum vulgare); test: Test G mixtures of Compound 26 with crop safeners, postemergence plant response; settings: applied alone, 125 g a.i./ha
# Method: (§4) This test evaluated the effect of mixtures of Compound 26 with commercial crop safeners cloquintocet-mexyl, mefenpyr-diethyl, and fenchlorazole-ethyl on three plant species. Seeds of winter wheat (TRZAW, Triticum aestivum), winter barley (HORVX, Hordeum vulgare), and wild oat (AVEFA, Avena fatua) (a weed) were planted into a silt loam soil. Plants from these seeds were treated postemergence using test chemicals formulated in a non-phytotoxic solvent mixture that included a surfactant. Plants ranged in height from 6 to 10 cm (2- to 3-leaf stage).
# (§5) Plants were grown in a greenhouse using supplemental lighting to maintain a photoperiod of about 14 hours; daytime and nighttime temperatures were about 22-26° C. and 15-19° C., respectively. Balanced fertilizer was applied through the watering system. Treatments consisted of Compound 26 and the above mentioned safeners alone and in combination using a spray volume of 281 L/ha. Each treatment was replicated four times. Treated plants and controls were maintained in a greenhouse for 15 days, after which time all treated plants were compared to controls and visually evaluated. Plant response ratings were calculated as the means of the four replicates based on a scale of 0 to 100 where 0 is no effect and 100 is complete control and are summarized in Tables G1 to G3. Because the safeners alone caused no injury at the rates tested, the expected effect of a mixture of Compound 26 with a safener is the same as the observed effect of Compound 26 alone.
# (§6) The highest application rate of each safener was tested alone to confirm the absence of herbicidal activity on the test species when appled postemergence at 125 g ai/ha. Therefore, an extrapolated result of zero for each safener alone at 16, 31, or 62 g ai/ha was used to calculate the mixture response of Compound 26 and these safener application rates.
# [12] = tested on: wild oat (AVEFA, Avena fatua); test: as above; settings: applied alone, 125 g a.i./ha
# Method: as §4, §5, §6
# [13] = tested on: winter wheat (TRZAW, Triticum aestivum); test: as above; settings: applied alone, 125 g a.i./ha
# Method: as §4, §5, §6
# [14] = tested on: morningglory (Ipomoea coccinea); test: Test A pre-/postemergence plant response
# Text: as §1, §2
# [15] = tested on: velvetleaf (Abutilon theophrasti); test: Test A pre-/postemergence plant response
# Text: as §1, §2
# [16] = Postemergence, 125 g ai/ha, 0 to 100 scale, 0 no effect, 100 complete control
# [17] = Preemergence, 125 g ai/ha, 0 to 100 scale (0 no effect, 100 complete control)
# [18] = Postemergence, 31 g ai/ha, 0 to 100 scale, 0 no effect, 100 complete control
# [19] = Preemergence, 31 g ai/ha, 0 to 100 scale, 0 is no effect, 100 is complete control
# [20] = Flood (flooded paddy test), 250 g ai/ha, scale 0 to 100, 0 no effect, 100 complete control
# [21] = Flood, 62 g ai/ha, scale 0 to 100
# [22] = Postemergence, 500 g ai/ha, 0 to 100 scale, 0 no effect, 100 complete control
# [23] = Preemergence, 500 g ai/ha, 0 to 100 scale (0 no effect, 100 complete control)
# [24] = Flood (flooded paddy test), 62 g ai/ha, scale 0 to 100, 0 no effect, 100 complete control
# [25] = Flood (flooded paddy test), 125 g ai/ha, scale 0 to 100, 0 no effect, 100 complete control
# [26] = Flood, 31 g ai/ha, scale 0 to 100
compound,measurement,setting,value
CCc1cc(-c2ccc(Cl)cc2)nn1-c1c(O)c(C)nn(C)c1=O [Compound 86],"Plant response rating, Canarygrass",[1]; [16],100
same,"Plant response rating, Canarygrass",[1]; [17],100
same,"Plant response rating, Corn",corn (Zea mays); [18],30
same,"Plant response rating, Corn",corn (Zea mays); [16],90
same,"Plant response rating, Corn",corn (Zea mays); [19],0
same,"Plant response rating, Corn",corn (Zea mays); [17],40
same,"Plant response rating, Pigweed",[2]; [18],0
same,"Plant response rating, Pigweed",[2]; [16],0
same,"Plant response rating, Pigweed",[2]; [19],0
same,"Plant response rating, Pigweed",[2]; [17],0
same,"Plant response rating, Barnyardgrass",[3]; [18],100
same,"Plant response rating, Barnyardgrass",[3]; [16],100
same,"Plant response rating, Barnyardgrass",[3]; [19],50
same,"Plant response rating, Barnyardgrass",[3]; [17],100
same,"Plant response rating, Blackgrass",[4]; [18],80
same,"Plant response rating, Blackgrass",[4]; [16],100
same,"Plant response rating, Blackgrass",[4]; [19],50
same,"Plant response rating, Blackgrass",[4]; [17],90
same,"Plant response rating, Wheat",[5]; [18],20
same,"Plant response rating, Wheat",[5]; [16],50
same,"Plant response rating, Wheat",[5]; [19],0
same,"Plant response rating, Wheat",[5]; [17],40
same,"Plant response rating, Foxtail, Giant",[6]; [18],70
same,"Plant response rating, Foxtail, Giant",[6]; [16],90
same,"Plant response rating, Foxtail, Giant",[6]; [19],10
same,"Plant response rating, Foxtail, Giant",[6]; [17],100
same,"Plant response rating, Crabgrass, Large",[7]; [18],70
same,"Plant response rating, Crabgrass, Large",[7]; [16],100
same,"Plant response rating, Crabgrass, Large",[7]; [19],10
same,"Plant response rating, Crabgrass, Large",[7]; [17],90
same,"Plant response rating, Rice",rice (Oryza sativa); [20],35
same,"Plant response rating, Rice",rice (Oryza sativa); [21],30
same,"Plant response rating, Barnyardgrass",[8]; [20],40
same,"Plant response rating, Barnyardgrass",[8]; [21],0
same,"Plant response rating, Sedge, Umbrella",[9]; [20],55
same,"Plant response rating, Sedge, Umbrella",[9]; [21],0
same,"Plant response rating, Ducksalad",[10]; [20],65
same,"Plant response rating, Ducksalad",[10]; [21],30
CCOC(=O)c1nc(C(Cl)(Cl)Cl)n(-c2ccc(Cl)cc2Cl)n1 [fenchlorazole-ethyl],"HORVX Obsd. (observed effect) plant response rating, scale 0 to 100",[11],0
same,"AVEFA Obsd. (observed effect) plant response rating, scale 0 to 100",[12],0
same,"TRZAW Obsd. (observed effect) plant response rating, scale 0 to 100",[13],0
CCOC(=O)C1=NN(c2ccc(Cl)cc2Cl)C(C)(C(=O)OCC)C1 (stereo not shown) [mefenpyr-diethyl],"HORVX Obsd. (observed effect) plant response rating, scale 0 to 100",[11],0
same,"AVEFA Obsd. (observed effect) plant response rating, scale 0 to 100",[12],0
same,"TRZAW Obsd. (observed effect) plant response rating, scale 0 to 100",[13],0
CC(C)Cc1cc(-c2ccc(Cl)cc2)nn1-c1c(O)cnn(C)c1=O [Compound 92],"Plant response rating, Canarygrass",[1]; [18],0
same,"Plant response rating, Canarygrass",[1]; [16],30
same,"Plant response rating, Canarygrass",[1]; [19],0
same,"Plant response rating, Canarygrass",[1]; [17],10
same,"Plant response rating, Corn",corn (Zea mays); [18],0
same,"Plant response rating, Corn",corn (Zea mays); [16],20
same,"Plant response rating, Corn",corn (Zea mays); [19],0
same,"Plant response rating, Corn",corn (Zea mays); [17],20
same,"Plant response rating, Pigweed",[2]; [18],0
same,"Plant response rating, Pigweed",[2]; [16],0
same,"Plant response rating, Pigweed",[2]; [19],0
same,"Plant response rating, Pigweed",[2]; [17],0
same,"Plant response rating, Barnyardgrass",[3]; [18],0
same,"Plant response rating, Barnyardgrass",[3]; [16],80
same,"Plant response rating, Barnyardgrass",[3]; [19],0
same,"Plant response rating, Barnyardgrass",[3]; [17],20
same,"Plant response rating, Blackgrass",[4]; [18],0
same,"Plant response rating, Blackgrass",[4]; [16],50
same,"Plant response rating, Blackgrass",[4]; [19],0
same,"Plant response rating, Blackgrass",[4]; [17],0
same,"Plant response rating, Wheat",[5]; [18],0
same,"Plant response rating, Wheat",[5]; [16],30
same,"Plant response rating, Wheat",[5]; [19],0
same,"Plant response rating, Wheat",[5]; [17],0
same,"Plant response rating, Foxtail, Giant",[6]; [18],10
same,"Plant response rating, Foxtail, Giant",[6]; [16],60
same,"Plant response rating, Foxtail, Giant",[6]; [19],0
same,"Plant response rating, Foxtail, Giant",[6]; [17],50
same,"Plant response rating, Crabgrass, Large",[7]; [18],0
same,"Plant response rating, Crabgrass, Large",[7]; [16],10
same,"Plant response rating, Crabgrass, Large",[7]; [19],0
same,"Plant response rating, Crabgrass, Large",[7]; [17],20
CCc1cc(-c2ccc(Cl)c(Cl)c2)nn1-c1c(OC(=O)OC(C)C)cnn(C)c1=O [Compound 22],"Plant response rating, Corn",corn (Zea mays); [16],20
same,"Plant response rating, Corn",corn (Zea mays); [22],90
same,"Plant response rating, Corn",corn (Zea mays); [17],30
same,"Plant response rating, Corn",corn (Zea mays); [23],70
same,"Plant response rating, Pigweed",[2]; [16],0
same,"Plant response rating, Pigweed",[2]; [22],0
same,"Plant response rating, Pigweed",[2]; [17],0
same,"Plant response rating, Pigweed",[2]; [23],0
same,"Plant response rating, Barnyardgrass",[3]; [16],50
same,"Plant response rating, Barnyardgrass",[3]; [22],90
same,"Plant response rating, Barnyardgrass",[3]; [17],30
same,"Plant response rating, Barnyardgrass",[3]; [23],100
same,"Plant response rating, Morningglory",[14]; [16],0
same,"Plant response rating, Morningglory",[14]; [22],0
same,"Plant response rating, Morningglory",[14]; [17],0
same,"Plant response rating, Morningglory",[14]; [23],0
same,"Plant response rating, Velvetleaf",[15]; [16],0
same,"Plant response rating, Velvetleaf",[15]; [22],0
same,"Plant response rating, Velvetleaf",[15]; [17],0
same,"Plant response rating, Velvetleaf",[15]; [23],0
same,"Plant response rating, Wheat",[5]; [16],20
same,"Plant response rating, Wheat",[5]; [22],60
same,"Plant response rating, Wheat",[5]; [17],40
same,"Plant response rating, Wheat",[5]; [23],70
same,"Plant response rating, Foxtail, Giant",[6]; [16],60
same,"Plant response rating, Foxtail, Giant",[6]; [22],80
same,"Plant response rating, Foxtail, Giant",[6]; [17],90
same,"Plant response rating, Foxtail, Giant",[6]; [23],100
same,"Plant response rating, Crabgrass, Large",[7]; [16],10
same,"Plant response rating, Crabgrass, Large",[7]; [22],80
same,"Plant response rating, Crabgrass, Large",[7]; [17],50
same,"Plant response rating, Crabgrass, Large",[7]; [23],90
same,"Plant response rating, Rice",rice (Oryza sativa); [24],0
same,"Plant response rating, Rice",rice (Oryza sativa); [25],0
same,"Plant response rating, Rice",rice (Oryza sativa); [20],0
same,"Plant response rating, Rice",rice (Oryza sativa); [26],0
same,"Plant response rating, Barnyardgrass",[8]; [24],0
same,"Plant response rating, Barnyardgrass",[8]; [25],0
same,"Plant response rating, Barnyardgrass",[8]; [20],0
same,"Plant response rating, Barnyardgrass",[8]; [26],0
same,"Plant response rating, Sedge, Umbrella",[9]; [24],0
same,"Plant response rating, Sedge, Umbrella",[9]; [25],0
same,"Plant response rating, Sedge, Umbrella",[9]; [20],0
same,"Plant response rating, Sedge, Umbrella",[9]; [26],0
same,"Plant response rating, Ducksalad",[10]; [24],0
same,"Plant response rating, Ducksalad",[10]; [25],0
same,"Plant response rating, Ducksalad",[10]; [20],0
same,"Plant response rating, Ducksalad",[10]; [26],0
